ChEMBL document CHEMBL3616426 (Eur J Med Chem, 2015)

Columns and labels:
[1] = target: T1, Estrogen receptor (Homo sapiens) (UniProt P03372); assay: Agonist activity at ERalpha (301 to 553 amino acid residues) (unknown origin) assessed as induction of interaction with SRC1 after 24 hrs by yeast two-hybrid assay relative to isopaucifloral F
T1 sequence (whole entry): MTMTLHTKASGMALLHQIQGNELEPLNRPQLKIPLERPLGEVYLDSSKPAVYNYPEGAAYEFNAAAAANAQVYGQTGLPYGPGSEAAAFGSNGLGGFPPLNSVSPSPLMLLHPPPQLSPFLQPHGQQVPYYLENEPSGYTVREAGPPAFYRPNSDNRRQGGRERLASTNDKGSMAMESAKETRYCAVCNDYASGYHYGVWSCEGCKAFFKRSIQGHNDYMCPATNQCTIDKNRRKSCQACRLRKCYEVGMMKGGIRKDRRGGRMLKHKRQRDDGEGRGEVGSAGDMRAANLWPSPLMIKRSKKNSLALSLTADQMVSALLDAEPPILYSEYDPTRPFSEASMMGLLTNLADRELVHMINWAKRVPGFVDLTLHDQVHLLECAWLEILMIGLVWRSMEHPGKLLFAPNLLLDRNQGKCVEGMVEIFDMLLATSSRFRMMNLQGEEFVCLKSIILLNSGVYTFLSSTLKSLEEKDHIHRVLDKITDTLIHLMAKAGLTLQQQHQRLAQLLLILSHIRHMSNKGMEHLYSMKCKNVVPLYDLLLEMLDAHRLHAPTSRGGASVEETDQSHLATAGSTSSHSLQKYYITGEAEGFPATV

[2] = target: T1, Estrogen receptor (Homo sapiens); assay: Antagonist activity at ERalpha (301 to 553 amino acid residues) (unknown origin) assessed as inhibition of E2 induced interaction with SRC1 after 24 hrs by yeast-two-hybrid assay; design: concentration or dose not given beside the values; scale not given: the % may be the effect or the level left
Estrogen receptor beta = Estrogen receptor beta (Homo sapiens, UniProt Q92731); assay: Agonist activity at ERbeta (248 to 510 amino acid residues) (unknown origin) assessed as induction of interaction with SRC1 after 24 hrs by yeast two-hybrid assay
Rattus norvegicus [3] = assay: Antiosteoporotic activity in ovariectomized Sprague-Dawley rat assessed as bone volume /tissue volume at 1 ug/kg, po qd at 6th week by micro-CT analysis (reference value: 41.33 +/- 5.04%); type: functional
Rattus norvegicus [4] = assay: Antiosteoporotic activity in ovariectomized Sprague-Dawley rat assessed as bone volume /tissue volume at 1 ug/kg, po qd at 12th week by micro-CT analysis (reference value: 31.61 +/- 2.39%); type: functional
Rattus norvegicus [5] = assay: Antiosteoporotic activity in ovariectomized Sprague-Dawley rat assessed as bone volume /tissue volume at 1 ug/kg, po qd at 18th week by micro-CT analysis (reference value: 27.36 +/- 1.99%); type: functional
Rattus norvegicus [6] = assay: Antiosteoporotic activity in ovariectomized Sprague-Dawley rat assessed as trabecular thickness at 1 ug/kg, po qd at 6th week by micro-CT analysis (reference value: 0.086 +/- 0.0069 millimeter); type: functional, Trabecula
Rattus norvegicus [7] = assay: Antiosteoporotic activity in ovariectomized Sprague-Dawley rat assessed as trabecular thickness at 1 ug/kg, po qd at 12th week by micro-CT analysis (reference value: 0.070 +/- 0.0063 millimeter); type: functional, Trabecula
Rattus norvegicus [8] = assay: Antiosteoporotic activity in ovariectomized Sprague-Dawley rat assessed as trabecular thickness at 1 ug/kg, po qd at 18th week by micro-CT analysis (reference value: 0.103 +/- 0.0044 millimeter); type: functional, Trabecula
Rattus norvegicus [9] = assay: Antiosteoporotic activity in ovariectomized Sprague-Dawley rat assessed as trabecular separation at 1 ug/kg, po qd at 6th week by micro-CT analysis (reference value: 0.116 +/- 0.010 millimeter); type: functional, Trabecula
Rattus norvegicus [10] = assay: Antiosteoporotic activity in ovariectomized Sprague-Dawley rat assessed as trabecular separation at 1 ug/kg, po qd at 12th week by micro-CT analysis (reference value: 0.146 +/- 0.010 millimeter); type: functional, Trabecula
Rattus norvegicus [11] = assay: Antiosteoporotic activity in ovariectomized Sprague-Dawley rat assessed as trabecular separation at 1 ug/kg, po qd at 18th week by micro-CT analysis (reference value: 0.234 +/- 0.021 millimeter); type: functional, Trabecula
Rattus norvegicus [12] = assay: Antiosteoporotic activity in ovariectomized Sprague-Dawley rat assessed as serum osteocalcin level at 1 ug/kg, po qd at 12th week by enzyme immunoassay (reference value: 1055.8 +/- 14 ng/ml); type: functional
Rattus norvegicus [13] = assay: Antiosteoporotic activity in ovariectomized Sprague-Dawley rat assessed as serum osteocalcin level at 1 ug/kg, po qd at 18th week by enzyme immunoassay (reference value: 1118.9 +/- 37.77 ng/ml); type: functional

Estrogen receptor beta, sequence (Q92731 whole entry, the tested form may be a part): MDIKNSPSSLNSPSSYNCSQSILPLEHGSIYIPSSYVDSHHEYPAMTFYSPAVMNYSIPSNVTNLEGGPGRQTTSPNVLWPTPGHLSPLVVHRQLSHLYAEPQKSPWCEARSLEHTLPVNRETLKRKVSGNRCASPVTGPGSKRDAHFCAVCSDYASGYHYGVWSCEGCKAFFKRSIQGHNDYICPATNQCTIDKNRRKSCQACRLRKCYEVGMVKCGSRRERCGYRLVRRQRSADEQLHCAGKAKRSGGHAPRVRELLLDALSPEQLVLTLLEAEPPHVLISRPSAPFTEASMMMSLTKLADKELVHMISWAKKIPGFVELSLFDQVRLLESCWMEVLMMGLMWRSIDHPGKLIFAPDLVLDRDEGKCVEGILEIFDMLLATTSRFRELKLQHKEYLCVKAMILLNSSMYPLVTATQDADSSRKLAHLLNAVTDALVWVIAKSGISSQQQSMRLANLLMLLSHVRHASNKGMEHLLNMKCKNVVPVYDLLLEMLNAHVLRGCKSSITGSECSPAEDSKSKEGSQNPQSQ

fold change (FC) [1] | Activity [2] [%] | Structure (SMILES) | also measured
0.1 | 0 | Oc1ccc(/C=C/c2cc(O)cc(O)c2)cc1 | –
0.92 | 20.9 | Oc1ccc(/C=C2/c3cc(O)cc(O)c3[C@@H](c3ccc(O)cc3)[C@@H]2c2cc(O)cc(O)c2)cc1 | –
0.83 | 1.59 | Oc1ccc(C2C(c3cc(O)cc(O)c3)=C(Cc3ccc(F)cc3)c3cc(O)cc(O)c32)cc1 (stereo not given) | –
0.98 | 2 | Oc1ccc(C2C(c3cc(O)cc(O)c3)=C(Cc3ccccc3)c3cc(O)cc(O)c32)cc1 (stereo not given) | –
1.01 | 5.23 | Oc1ccc([C@@H]2c3c(O)cc(O)cc3[C@H]3[C@H](c4ccc(O)cc4)c4c(O)cc(O)cc4[C@@H]23)cc1 | –
0.97 | 7.59 | O=C1c2cc(O)cc(O)c2[C@@H](c2ccccc2)[C@@H]1c1cc(O)cc(O)c1 (relative stereo) | –

Further lines, the molecule ahead of its results:

Structure (SMILES) | fold change (FC) [1] | Activity [2] [%] | also measured
Oc1ccc(C2C(c3cc(O)cc(O)c3)=C(Cc3ccc(Cl)cc3)c3cc(O)cc(O)c32)cc1 (stereo not given) | 0.88 | 15.2 | EC50 (Estrogen receptor beta): 45.8 µM
Cc1ccc([C@@H]2c3c(O)cc(O)cc3[C@H]3[C@H](c4ccc(O)cc4)c4c(O)cc(O)cc4[C@@H]23)cc1 | 0.99 | 0 | EC50 (Estrogen receptor beta): 5.65 µM
Oc1cc(O)c2c(c1)[C@H]1[C@H](c3ccccc3)c3c(O)cc(O)cc3[C@H]1[C@@H]2c1ccccc1 | 0.86 | 0 | –
Oc1cc(O)cc(C2=C(Cc3ccccc3)c3cc(O)cc(O)c3C2c2ccccc2)c1 (stereo not given) | 0.88 | 0 | –
Oc1ccc(CC2=C(c3cc(O)cc(O)c3)C(c3ccc(O)cc3)c3c(O)cc(O)cc32)cc1 (stereo not given) | 0.94 | 5.84 | –
Oc1ccc(CC2=C(c3cc(O)cc(O)c3)C(c3ccccc3)c3c(O)cc(O)cc32)cc1 (stereo not given) | 0.86 | 8.48 | –
Oc1ccc([C@@H]2c3c(O)cc(O)cc3[C@H]3[C@H](c4ccc(F)cc4)c4c(O)cc(O)cc4[C@@H]23)cc1 | 0.95 | 0 | –
Oc1ccc([C@@H]2c3c(O)cc(O)cc3[C@H]3[C@H](c4ccccc4)c4c(O)cc(O)cc4[C@@H]23)cc1 | 0.94 | 0.76 | –
O=C1c2cc(O)cc(O)c2[C@@H](c2ccc(F)cc2)[C@@H]1c1cc(O)cc(O)c1 (relative stereo) | 0.94 | 7.61 | –
Oc1ccc([C@@H]2c3c(O)cc(O)cc3C(O)[C@H]2c2cc(O)cc(O)c2)cc1 (relative stereo) | 1.04 | 24.5 | –
O=c1c(-c2ccc(O)cc2)coc2cc(O)cc(O)c12 [GENISTEIN] | – | – | Activity (Rattus norvegicus [3]): 40.5%; Activity (Rattus norvegicus [4]): 40.62%; Activity (Rattus norvegicus [5]): 41.62%; Activity (Rattus norvegicus [6]): 0.084 mm; Activity (Rattus norvegicus [7]): 0.079 mm; Activity (Rattus norvegicus [8]): 0.102 mm; Activity (Rattus norvegicus [9]): 0.125 mm; Activity (Rattus norvegicus [10]): 0.134 mm; Activity (Rattus norvegicus [11]): 0.157 mm; Activity (Rattus norvegicus [12]): 954.33 ng/mL; Activity (Rattus norvegicus [13]): 882.76 ng/mL
